Measurements from PubChem BioAssay (NCI).
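1) Cells in 96-well plates. 2) Compound, 48 h, 5 concentrations. 3) Linear interpolation between surrounding doses. 4) Unreached endpoint = highest concentration. TGI is the concentration that stops growth completely.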

What was measured:
Assay in all cases: DTP human tumour cell line panel, 48 h
CAKI-1 renal = test system: CAKI-1 renal
SNB-75 CNS = test system: SNB-75 CNS
SK-MEL-5 melanoma = test system: SK-MEL-5 melanoma
EKVX NSCLC = test system: EKVX NSCLC
SF-295 CNS = test system: SF-295 CNS
BT-549 breast = test system: BT-549 breast
OVCAR-8 ovarian = test system: OVCAR-8 ovarian
ACHN renal = test system: ACHN renal
SK-OV-3 ovarian = test system: SK-OV-3 ovarian
786-0 renal = test system: 786-0 renal
UACC-62 melanoma = test system: UACC-62 melanoma
MCF7 breast = test system: MCF7 breast
HOP-62 NSCLC = test system: HOP-62 NSCLC
SF-268 CNS = test system: SF-268 CNS
MOLT-4 leukemia = test system: MOLT-4 leukemia
TK-10 renal = test system: TK-10 renal
HT29 colon = test system: HT29 colon
T-47D breast = test system: T-47D breast
HCT-116 colon = test system: HCT-116 colon
K-562 leukemia = test system: K-562 leukemia
HCC-2998 colon = test system: HCC-2998 colon
SN12C renal = test system: SN12C renal
MALME-3M melanoma = test system: MALME-3M melanoma
SK-MEL-2 melanoma = test system: SK-MEL-2 melanoma
PC-3 prostate = test system: PC-3 prostate
MDA-MB-231 breast = test system: MDA-MB-231 breast
UACC-257 melanoma = test system: UACC-257 melanoma
UO-31 renal = test system: UO-31 renal
SR leukemia = test system: SR leukemia
NCI-H522 lung = test system: NCI-H522 lung
SK-MEL-28 melanoma = test system: SK-MEL-28 melanoma
OVCAR-3 ovarian = test system: OVCAR-3 ovarian
NCI-H460 lung = test system: NCI-H460 lung
MDA-N = test system: MDA-N
A549 NSCLC = test system: A549 NSCLC
NCI-H23 lung = test system: NCI-H23 lung
SW-620 colon = test system: SW-620 colon
LOX IMVI melanoma = test system: LOX IMVI melanoma
HL-60(TB) leukemia = test system: HL-60(TB) leukemia
HCT-15 colon = test system: HCT-15 colon
M14 melanoma = test system: M14 melanoma
HS 578T breast = test system: HS 578T breast
IGROV1 ovarian = test system: IGROV1 ovarian
U251 CNS = test system: U251 CNS
RPMI-8226 leukemia = test system: RPMI-8226 leukemia
SF-539 CNS = test system: SF-539 CNS
MDA-MB-435 = test system: MDA-MB-435
NCI-H226 lung = test system: NCI-H226 lung
KM12 colon = test system: KM12 colon
NCI/ADR-RES ovarian = test system: NCI/ADR-RES ovarian
DU-145 prostate = test system: DU-145 prostate
SNB-19 CNS = test system: SNB-19 CNS
OVCAR-5 ovarian = test system: OVCAR-5 ovarian
CCRF-CEM leukemia = test system: CCRF-CEM leukemia
COLO 205 colon = test system: COLO 205 colon
OVCAR-4 ovarian = test system: OVCAR-4 ovarian
HOP-92 NSCLC = test system: HOP-92 NSCLC
RXF 393 renal = test system: RXF 393 renal
A498 renal = test system: A498 renal

O=C(/C=C/c1ccc(F)c(F)c1)OCCc1ccccc1
TGI (CAKI-1 renal): > 100 µM | TGI (SNB-75 CNS): > 100 µM | TGI (SK-MEL-5 melanoma): > 100 µM | TGI (EKVX NSCLC): > 100 µM | TGI (SF-295 CNS): > 100 µM | TGI (BT-549 breast): > 100 µM | TGI (OVCAR-8 ovarian): > 100 µM | TGI (ACHN renal): > 100 µM | TGI (SK-OV-3 ovarian): > 100 µM | TGI (786-0 renal): > 100 µM | TGI (UACC-62 melanoma): > 100 µM | TGI (MCF7 breast): > 100 µM | TGI (HOP-62 NSCLC): > 100 µM | TGI (SF-268 CNS): > 100 µM | TGI (MOLT-4 leukemia): > 100 µM | TGI (TK-10 renal): > 100 µM | TGI (HT29 colon): > 100 µM | TGI (T-47D breast): > 100 µM | TGI (HCT-116 colon): > 100 µM | TGI (K-562 leukemia): > 100 µM | TGI (HCC-2998 colon): > 100 µM | TGI (SN12C renal): > 100 µM | TGI (MALME-3M melanoma): > 100 µM | TGI (SK-MEL-2 melanoma): > 100 µM | TGI (PC-3 prostate): > 100 µM | TGI (MDA-MB-231 breast): > 100 µM | TGI (UACC-257 melanoma): > 100 µM | TGI (UO-31 renal): > 100 µM | TGI (SR leukemia): > 100 µM | TGI (NCI-H522 lung): > 100 µM | TGI (SK-MEL-28 melanoma): > 100 µM | TGI (OVCAR-3 ovarian): > 100 µM | TGI (NCI-H460 lung): > 100 µM | TGI (MDA-N): > 100 µM | TGI (A549 NSCLC): > 100 µM | TGI (NCI-H23 lung): > 100 µM | TGI (SW-620 colon): > 100 µM | TGI (LOX IMVI melanoma): > 100 µM | TGI (HL-60(TB) leukemia): > 100 µM | TGI (HCT-15 colon): > 100 µM | TGI (M14 melanoma): > 100 µM | TGI (HS 578T breast): > 100 µM | TGI (IGROV1 ovarian): > 100 µM | TGI (U251 CNS): > 100 µM | TGI (RPMI-8226 leukemia): > 100 µM | TGI (SF-539 CNS): > 100 µM | TGI (MDA-MB-435): > 100 µM | TGI (NCI-H226 lung): > 100 µM | TGI (KM12 colon): > 100 µM | TGI (NCI/ADR-RES ovarian): > 100 µM | TGI (DU-145 prostate): > 100 µM | TGI (SNB-19 CNS): > 100 µM | TGI (OVCAR-5 ovarian): > 100 µM | TGI (CCRF-CEM leukemia): > 100 µM | TGI (COLO 205 colon): > 100 µM | TGI (OVCAR-4 ovarian): > 100 µM

Oc1[nH]c2ccccc2c1N=NC(=S)N1CCCC1
TGI (CAKI-1 renal): 10.8 µM | TGI (SNB-75 CNS): 14.1 µM | TGI (SK-MEL-5 melanoma): 8.5 µM | TGI (EKVX NSCLC): > 65.3 µM | TGI (SF-295 CNS): 17.1 µM | TGI (BT-549 breast): 22.8 µM | TGI (OVCAR-8 ovarian): 13.6 µM | TGI (HOP-92 NSCLC): 39.3 µM | TGI (ACHN renal): 4.55 µM | TGI (SK-OV-3 ovarian): 21.6 µM | TGI (786-0 renal): 17.3 µM | TGI (UACC-62 melanoma): 18.2 µM | TGI (RXF 393 renal): 3.55 µM | TGI (MCF7 breast): > 56.6 µM | TGI (HOP-62 NSCLC): 26.2 µM | TGI (SF-268 CNS): > 58.3 µM | TGI (MOLT-4 leukemia): 5.75 µM | TGI (TK-10 renal): 36.2 µM | TGI (HT29 colon): > 53.5 µM | TGI (T-47D breast): 85.1 µM | TGI (HCT-116 colon): 21.5 µM | TGI (K-562 leukemia): > 42.7 µM | TGI (HCC-2998 colon): 23.6 µM | TGI (SN12C renal): 31.9 µM | TGI (A498 renal): 19.2 µM | TGI (MALME-3M melanoma): 9.82 µM | TGI (SK-MEL-2 melanoma): 33.2 µM | TGI (PC-3 prostate): 57.8 µM | TGI (MDA-MB-231 breast): 55.7 µM | TGI (UACC-257 melanoma): 29.6 µM | TGI (UO-31 renal): 11.3 µM | TGI (SR leukemia): 3.65 µM | TGI (NCI-H522 lung): 38.9 µM | TGI (SK-MEL-28 melanoma): > 100 µM | TGI (OVCAR-3 ovarian): 17 µM | TGI (NCI-H460 lung): 9.42 µM | TGI (MDA-N): 38.8 µM | TGI (A549 NSCLC): 13.6 µM | TGI (NCI-H23 lung): 34.5 µM | TGI (SW-620 colon): 52.7 µM | TGI (LOX IMVI melanoma): 18.3 µM | TGI (HL-60(TB) leukemia): 8.83 µM | TGI (HCT-15 colon): 4.29 µM | TGI (M14 melanoma): 8.44 µM | TGI (HS 578T breast): > 72.9 µM | TGI (IGROV1 ovarian): 15 µM | TGI (U251 CNS): 22.6 µM | TGI (RPMI-8226 leukemia): 9.64 µM | TGI (SF-539 CNS): 10.7 µM | TGI (MDA-MB-435): 29.5 µM | TGI (NCI-H226 lung): 1.88 µM | TGI (KM12 colon): > 49.5 µM | TGI (NCI/ADR-RES ovarian): 6.03 µM | TGI (DU-145 prostate): > 100 µM | TGI (SNB-19 CNS): > 43.8 µM | TGI (OVCAR-5 ovarian): > 82.6 µM | TGI (CCRF-CEM leukemia): 6.78 µM | TGI (COLO 205 colon): 27.5 µM | TGI (OVCAR-4 ovarian): 32.2 µM
